# Test system: 282377-053-R-J1-PDC complex spheroids, viability
# Assay: Anticancer human tumor 282377-053-R-J1-PDC patient-derived colon adenocarcinoma cell line growth inhibition [GQUAD]
# Settings: for IC50: curve of first compound; for viability, T/C: stronger effect = lower value
# How it was run: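 Viability of tumor cells grown as complex spheroids with endothelial and stromal cells, exposed to drug combinations. Top concentration at or near clinical Cmax (else 10 microM), diluted in half-log increments.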
# [1] = second compound 0.0316 µM, first compound 0.0316 µM
# [2] = second compound 0.0316 µM, first compound 0.316 µM
# [3] = second compound 0.1 µM, first compound 0.0316 µM
# [4] = second compound 0.1 µM, first compound 0.316 µM
# [5] = second compound 0.316 µM, first compound 0.0316 µM
# [6] = second compound 0.316 µM, first compound 0.316 µM
# [7] = second compound 1 µM, first compound 0.0316 µM
# [8] = second compound 1 µM, first compound 0.316 µM
# [9] = second compound 3.16 µM, first compound 0.0316 µM
# [10] = second compound 3.16 µM, first compound 0.316 µM
# [11] = second compound 10 µM, first compound 0.0316 µM
# [12] = second compound 10 µM, first compound 0.316 µM
# [13] = second compound 0.0316 µM, first compound 0.000999 µM
# [14] = second compound 0.0316 µM, first compound 0.00316 µM
# [15] = second compound 0.0316 µM, first compound 0.00999 µM
# [16] = second compound 0.0316 µM, first compound 0.0999 µM
# [17] = second compound 0.1 µM, first compound 0.000999 µM
# [18] = second compound 0.1 µM, first compound 0.00316 µM
# [19] = second compound 0.1 µM, first compound 0.00999 µM
# [20] = second compound 0.1 µM, first compound 0.0999 µM
# [21] = second compound 0.316 µM, first compound 0.000999 µM
# [22] = second compound 0.316 µM, first compound 0.00316 µM
# [23] = second compound 0.316 µM, first compound 0.00999 µM
# [24] = second compound 0.316 µM, first compound 0.0999 µM
# [25] = second compound 1 µM, first compound 0.000999 µM
# [26] = second compound 1 µM, first compound 0.00316 µM
# [27] = second compound 1 µM, first compound 0.00999 µM
# [28] = second compound 1 µM, first compound 0.0999 µM
# [29] = second compound 3.16 µM, first compound 0.000999 µM
# [30] = second compound 3.16 µM, first compound 0.00316 µM
# [31] = second compound 3.16 µM, first compound 0.00999 µM
# [32] = second compound 3.16 µM, first compound 0.0999 µM
# [33] = second compound 10 µM, first compound 0.000999 µM
# [34] = second compound 10 µM, first compound 0.00316 µM
# [35] = second compound 10 µM, first compound 0.00999 µM
# [36] = second compound 10 µM, first compound 0.0999 µM
# 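Note: spheroids exposed to compounds for 7 days before readout.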
# 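Throughout, for viability, T/C: percent of vehicle DMSO control viability with 100% = untreated-like growth.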
smiles,measurement,setting,value
C=CC(=O)N1CCN(c2nc(=O)n(-c3c(C)ccnc3C(C)C)c3nc(-c4c(O)cccc4F)c(F)cc23)C(C)C1 (stereo unspecified) + CN(C)c1ccc(Nc2c3ccc(NC(=O)CCN4CCCC4)cc3nc3cc(NC(=O)CCN4CCCC4)ccc23)cc1,IC50,second compound 0.0316 µM,> 10000 nM
same,IC50,second compound 0.1 µM,> 10000 nM
same,IC50,second compound 0.316 µM,> 10000 nM
same,IC50,second compound 1 µM,> 10000 nM
same,IC50,second compound 3.16 µM,> 10000 nM
same,IC50,second compound 10 µM,> 10000 nM
same,"viability, T/C",[1],105%
same,"viability, T/C","second compound 0.0316 µM, first compound 0.1 µM",104%
same,"viability, T/C",[2],99.3%
same,"viability, T/C","second compound 0.0316 µM, first compound 1 µM",99%
same,"viability, T/C","second compound 0.0316 µM, first compound 3.16 µM",87%
same,"viability, T/C","second compound 0.0316 µM, first compound 10 µM",79%
same,"viability, T/C",[3],107%
same,"viability, T/C","second compound 0.1 µM, first compound 0.1 µM",94.5%
same,"viability, T/C",[4],110%
same,"viability, T/C","second compound 0.1 µM, first compound 1 µM",96%
same,"viability, T/C","second compound 0.1 µM, first compound 3.16 µM",107%
same,"viability, T/C","second compound 0.1 µM, first compound 10 µM",66.6%
same,"viability, T/C",[5],115%
same,"viability, T/C","second compound 0.316 µM, first compound 0.1 µM",97.6%
same,"viability, T/C",[6],103%
same,"viability, T/C","second compound 0.316 µM, first compound 1 µM",101%
same,"viability, T/C","second compound 0.316 µM, first compound 3.16 µM",103%
same,"viability, T/C","second compound 0.316 µM, first compound 10 µM",72.4%
same,"viability, T/C",[7],112%
same,"viability, T/C","second compound 1 µM, first compound 0.1 µM",99.5%
same,"viability, T/C",[8],98.5%
same,"viability, T/C","second compound 1 µM, first compound 1 µM",95.9%
same,"viability, T/C","second compound 1 µM, first compound 3.16 µM",90.5%
same,"viability, T/C","second compound 1 µM, first compound 10 µM",92.8%
same,"viability, T/C",[9],105%
same,"viability, T/C","second compound 3.16 µM, first compound 0.1 µM",90.2%
same,"viability, T/C",[10],100%
same,"viability, T/C","second compound 3.16 µM, first compound 1 µM",84.9%
same,"viability, T/C","second compound 3.16 µM, first compound 3.16 µM",79.9%
same,"viability, T/C","second compound 3.16 µM, first compound 10 µM",89.9%
same,"viability, T/C",[11],111%
same,"viability, T/C","second compound 10 µM, first compound 0.1 µM",93.3%
same,"viability, T/C",[12],94.5%
same,"viability, T/C","second compound 10 µM, first compound 1 µM",79.8%
same,"viability, T/C","second compound 10 µM, first compound 3.16 µM",88.3%
same,"viability, T/C","second compound 10 µM, first compound 10 µM",86.5%
CC[C@@]1(O)C(=O)OCc2c1cc1n(c2=O)Cc2cc3c(CN(C)C)c(O)ccc3nc2-1 + CN(C)c1ccc(Nc2c3ccc(NC(=O)CCN4CCCC4)cc3nc3cc(NC(=O)CCN4CCCC4)ccc23)cc1,IC50,second compound 0.0316 µM,> 316 nM
same,IC50,second compound 0.1 µM,> 316 nM
same,IC50,second compound 0.316 µM,> 316 nM
same,IC50,second compound 1 µM,> 316 nM
same,IC50,second compound 3.16 µM,> 316 nM
same,IC50,second compound 10 µM,> 316 nM
same,"viability, T/C",[13],108%
same,"viability, T/C",[14],102%
same,"viability, T/C",[15],103%
same,"viability, T/C",[1],118%
same,"viability, T/C",[16],104%
same,"viability, T/C",[2],91%
same,"viability, T/C",[17],92.8%
same,"viability, T/C",[18],103%
same,"viability, T/C",[19],95.2%
same,"viability, T/C",[3],107%
same,"viability, T/C",[20],115%
same,"viability, T/C",[4],90.5%
same,"viability, T/C",[21],105%
same,"viability, T/C",[22],113%
same,"viability, T/C",[23],88.5%
same,"viability, T/C",[5],88.3%
same,"viability, T/C",[24],104%
same,"viability, T/C",[6],101%
same,"viability, T/C",[25],99.3%
same,"viability, T/C",[26],101%
same,"viability, T/C",[27],93%
same,"viability, T/C",[7],89.7%
same,"viability, T/C",[28],108%
same,"viability, T/C",[8],87%
same,"viability, T/C",[29],90.6%
same,"viability, T/C",[30],87.3%
same,"viability, T/C",[31],97.8%
same,"viability, T/C",[9],86.2%
same,"viability, T/C",[32],102%
same,"viability, T/C",[10],82.2%
same,"viability, T/C",[33],88.5%
same,"viability, T/C",[34],85.7%
same,"viability, T/C",[35],94.7%
same,"viability, T/C",[11],79.7%
same,"viability, T/C",[36],77.3%
same,"viability, T/C",[12],97%
CCc1c2c(nc3ccc(O)cc13)-c1cc3c(c(=O)n1C2)COC(=O)[C@]3(O)CC + CN(C)c1ccc(Nc2c3ccc(NC(=O)CCN4CCCC4)cc3nc3cc(NC(=O)CCN4CCCC4)ccc23)cc1,IC50,second compound 0.0316 µM,170 nM
same,IC50,second compound 0.1 µM,162 nM
same,IC50,second compound 0.316 µM,148 nM
same,IC50,second compound 1 µM,117 nM
same,IC50,second compound 3.16 µM,211 nM
same,IC50,second compound 10 µM,218 nM
same,"viability, T/C",[13],102%
same,"viability, T/C",[14],104%
same,"viability, T/C",[15],85.5%
same,"viability, T/C",[1],69.5%
same,"viability, T/C",[16],61.8%
same,"viability, T/C",[2],40%
same,"viability, T/C",[17],104%
same,"viability, T/C",[18],90.9%
same,"viability, T/C",[19],92.1%
same,"viability, T/C",[3],60.7%
same,"viability, T/C",[20],61.2%
same,"viability, T/C",[4],40.9%
same,"viability, T/C",[21],110%
same,"viability, T/C",[22],107%
same,"viability, T/C",[23],71.6%
same,"viability, T/C",[5],70.9%
same,"viability, T/C",[24],53.8%
same,"viability, T/C",[6],43%
same,"viability, T/C",[25],95.2%
same,"viability, T/C",[26],97.6%
same,"viability, T/C",[27],92.4%
same,"viability, T/C",[7],76.8%
same,"viability, T/C",[28],51.2%
same,"viability, T/C",[8],42.5%
same,"viability, T/C",[29],103%
same,"viability, T/C",[30],105%
same,"viability, T/C",[31],91.6%
same,"viability, T/C",[9],68.7%
same,"viability, T/C",[32],63.1%
same,"viability, T/C",[10],43.7%
same,"viability, T/C",[33],108%
same,"viability, T/C",[34],102%
same,"viability, T/C",[35],99.5%
same,"viability, T/C",[11],86.2%
same,"viability, T/C",[36],63.1%
same,"viability, T/C",[12],43.6%
